Results taken from a melting point compilation (Tetko et al.; mined from patent text by program, amines drawn as free bases though some values may be those of a salt).

Row | SMILES | melting point [°C]
1 | COC(=O)[C@@H]1CCCN1S(=O)(=O)c1ccc(C)c(COc2cccc3c(C)cc(C)nc23)c1C | 50
2 | CN(C[PH](=O)O)c1cc(Oc2ccc(C(F)(F)F)cc2Cl)ccc1[N+](=O)[O-] | 153 to 154
3 | O=C(CN1CCC(Cc2ccc(F)cc2)CC1)Nc1ccc(O)cc1 | 70 to 77
4 | COc1cn(-c2ccc(-n3cc(F)c(F)c3)cc2OC(F)F)nc(-c2ccnn2-c2ccccc2)c1=O | 168 to 170
5 | COc1ccc(C=CC(=O)c2cccc([N+](=O)[O-])c2)c(OC)c1 | 88.1 to 88.7
6 | CC(=O)Nc1cc(C2=NOC(c3cc(Cl)cc(Cl)c3)(C(F)(F)F)C2)ccc1-n1cncn1 (stereo unspecified) | 230 to 233
7 | O=C1c2ccccc2C(=O)N1CCCCCCCCOc1cccc2ccccc12 | 63 to 64
8 | CCOC(=O)c1nn(-c2ccccc2)c(=O)c2c1c1ccc(Cl)cc1n2C | 216 to 218
9 | CC(C)C[C@H](NC(=O)OCC1c2ccccc2-c2ccccc21)C(=O)OC(C)(C)C | 183 to 184
10 | CCN(CC)CCOC(=O)N1CCC(NC(=O)c2ccccc2)CC1 | 78 to 82
11 | O=C1NCc2c1cc1ccc3c(c1c2-c1ccc(F)cc1)OCC3 | 302 to 305
12 | Nc1ccc(C(=O)Nc2ccccc2C(c2ccc(O)cc2)c2ccc(O)cc2)cc1 | 158 to 161
13 | CC(c1ccccc1)n1c(N)c(C#N)c2c1CCCC2 (stereo unspecified) | 129
14 | CC(C)(C)c1cc(C=O)c(O)c(S(=O)(=O)CCl)c1 | 128 to 129
15 | Cc1cc(CNC2CCCN(C(=O)c3ccc(Nc4nccc(Nc5ccc(F)cc5)n4)cc3)C2)no1 (stereo unspecified) | 190 to 191
16 | CCCCCc1c(C(C)C)nc(C(C)C)c(CO)c1-c1cccc(OC)c1 | 65 to 66
17 | O=C(COc1ccccc1)c1ccc(Cl)cc1 | 80 to 83
18 | Brc1ccc2c(c1)N=C(N1CCN(c3ccccc3)CC1)c1cccc3c1N2CC3 | 171 to 173
19 | Cn1c(C(F)(F)F)cc(=O)n(-c2cc(Oc3ccc[nH]c3=O)c(Cl)cc2F)c1=O | 181
20 | O=C1C(O)=C(CC2CCCC(C(F)(F)F)C2)C(=O)c2ccccc21 (stereo unspecified) | 142
21 | COc1cc(C(C)C)c2c(c1)S(=O)(=O)N(COC(=O)c1c(C)c3cc(Cl)ccc3n1C)C2=O | 183 to 184
22 | O=C(O)C1=C(C(=O)Nc2ccc(Cl)cc2F)CCCC1 | 91 to 93
23 | N=Cc1ccccc1[N+](=O)[O-] | 117 to 119
24 | COc1c(F)ccc2ccc(Cl)nc12 | 85 to 86
25 | CCN(CC)C(=O)c1ccc(C(=C2CCNCC2)c2cccc3ccccc23)cc1 | 80 to 85
26 | CC1(Cn2c(=O)oc3ccccc32)Cn2cc([N+](=O)[O-])nc2O1 (stereo unspecified) | 223 to 224

Row | SMILES | melting point [°C]
27 | CC(C)OC(=Cn1ccnc1)c1ccc(Cl)cc1Cl | 184 to 186
28 | Cc1noc(NS(=O)(=O)c2cccc3c(N(C)C)cccc23)c1Br | 87 to 89
29 | CCC(=O)CCc1ccc(OC)c(S(N)(=O)=O)c1 | 135 to 138
30 | CCOC(=O)c1ccc(N)cc1C(=O)OCC | 95.6
31 | N#CC(C(=O)Nc1ccccc1)C(=O)c1nn(-c2ccccc2)c2c1COc1c(CN3CCOCC3)cc(F)cc1-2 (stereo unspecified) | 249 to 253
32 | Cc1cc(C)c(C(O)c2ccc(C(C)C)cc2)c(O)c1 (stereo unspecified) | 103 to 104
33 | CCCCCCCCOc1ccc(-c2cnc(-c3ccc(OCc4ccccc4)c(F)c3F)nc2)cn1 | 120
34 | CCOC(=O)COc1ccc(N2CCN(C(=O)OC(C)(C)C)CC2)cc1C=O | 93 to 94
35 | NC(=O)c1cc2c(C=Cc3ccccc3)cncc2s1 | 257 to 258
36 | COc1ccc2c(c1)C(=O)C1CCCCN1C2 (stereo unspecified) | 117 to 119
37 | O=C1C=C(Cl)C(=O)c2ccccc21 | 154 to 156
38 | O=C1CCC2(CC3CCC2CC3)C(=O)N1 (stereo unspecified) | 183 to 184
39 | CCOC(=O)CC(O)CC(O)C=CC(=C(c1ccc(F)cc1)c1ccc(F)cc1)n1nnnc1-c1ccccc1 (stereo unspecified) | 160 to 162
40 | COC(=O)C1=C(C)NC(C)=C(c2nc(CS(=O)(=O)Cc3ccccc3)no2)C1c1cccc([N+](=O)[O-])c1 (stereo unspecified) | 227
41 | CN1c2ccccc2CCC1c1ccccc1 (stereo unspecified) | 99 to 101
42 | C=Nn1nc(NC)n(OCC)c1=O | 169
43 | COC(=O)C=C(N)CC(=O)OC | 47 to 50
44 | Cn1c(/C=C/C(=O)Cl)c(-c2ccccc2)c2ccccc2c1=O | 213 to 215
45 | CCOC(=O)c1cc(-c2ccc(Cl)cc2)cnc1C | 71
46 | COc1c(F)cc2[nH]c(C)c(CC(=O)OCC[Si](C)(C)C)c2c1F | 86.9 to 88.7
47 | Cc1ccc(S(=O)(=O)N2CCCC2c2ccsc2)cc1 (racemic) | 114
48 | CN(C)S(=O)(=O)c1ccccc1Cl | 49 to 51
49 | CCOC(=O)c1ccn(-c2ccc(OC(F)(F)F)cc2)n1 | 76 to 78
50 | Oc1ccc2oc(-c3ccc(F)cc3)nc2c1 | 166 to 168
51 | COc1ccc(-c2nn(CC3CCCC3)c(=O)cc2-c2ccncc2)cc1 | 119 to 120
52 | O=C(O)c1c(CNS(=O)(=O)c2cccc(Cl)c2)nn(-c2ccc(Cl)cc2Cl)c1-c1ccc(Cl)cc1 | 211

Row | SMILES | melting point [°C]
53 | CCOc1ccc(C(OC(C)=O)c2sccc2C=O)cc1OCC (stereo unspecified) | 68
54 | CC(=O)c1nc2cccc(OC(F)(F)F)c2cc1OCc1ccccc1 | 90 to 92
55 | COc1ccc2c(Cc3c(Cl)cncc3Cl)nnc(Oc3ccccc3)c2c1 | 130 to 132
56 | CCCOC(Cc1ccc(OCCc2nc(C3CC3)oc2C)c2ccsc12)C(=O)O (stereo unspecified) | 61 to 63
57 | O=C(NCCCc1ccncc1)N(CCCCC(F)(F)F)CCC12CC3CC(CC(C3)C1)C2 | 117 to 119
58 | CCOc1ncc(C(=O)O)c2c(N)cccc12 | 159 to 165
59 | CCCCCCCCCCCCCCCCCCN1C(=O)CCC1=O | 75.8
60 | O=S1(=O)NCCOc2ccc(Br)cc21 | 129
61 | C/C(=N\OC(=O)CN(C)C)[C@H]1CC[C@H]2[C@@H]3CCC4=CC(=O)CC[C@]4(C)[C@H]3CC[C@]12C | 129 to 131
62 | CCCOc1ccc(-c2c(C)c(=O)cc(-c3ccccc3)n2-c2ccccc2)cc1 | 165 to 168
63 | CC(C)c1nc(CO)n(CC(=O)c2ccccc2)c1Sc1cc(Cl)cc(Cl)c1 | 205 to 211
64 | Cc1cc(N)c(C(=O)O)cc1F | 201 to 202
65 | COC(=O)CCCC(=O)Nc1ccc(-c2ccc(C#N)cc2)cc1 | 171 to 173
66 | CC(=O)CCSc1cc(C(C)(C)C)c(O)c(C(C)(C)C)c1 | 79 to 81
67 | CSc1nn2c(Cl)cc(Cl)nc2c1S(=O)(=O)c1ccccc1 | 193 to 197
68 | Oc1cccc(-c2cn3ccc4ccccc4c3n2)c1 | 201 to 202
69 | Cc1cccc(-c2[nH]c(C(C)C)nc2-c2cccc(-c3ccc(C(F)(F)F)cc3)c2)n1 | 91 to 93
70 | O=C1CCC(CCC(=O)OCc2ccccc2Cl)N1 (stereo unspecified) | 99 to 100
71 | Cc1cc(-n2ccnc2)c2cccc(OCc3c(Cl)ccc(S(=O)(=O)N4C[C@H](O)C[C@H]4C(=O)O)c3Cl)c2n1 | 140
72 | CN(CCNC(=O)Cc1ccc(OCc2ccc(-c3ccccc3)cc2)cc1)C(=O)OC(C)(C)C | 109 to 110
73 | Cn1cc(O)c(=O)c2ccc(Cl)cc21 | 225 to 228
74 | O=C(N[C@@H](CSc1ccccc1[N+](=O)[O-])C(=O)O)OCc1ccccc1 | 84 to 88
75 | Cc1cc(NC(=O)C(=O)N(C)Cc2ccccc2)cc(C)c1S(=O)(=O)C[N+](=O)[O-] | 99 to 101
76 | Cc1noc(NS(=O)(=O)c2ccccc2-c2ccc(-c3ncco3)cc2-c2ncco2)c1C | 108 to 113
77 | COc1cc2c(cc1OC)C(=O)CCCO2 | 87 to 88
78 | O=C(NCc1ccc(Cl)cc1)c1cn(CCO)c2sc(CCCO)cc2c1=O | 174 to 178

Row | SMILES | melting point [°C]
79 | CCCc1ccc(C(=O)NCCc2cccs2)cc1 | 97 to 99
80 | C[C@@H](n1cnc2c(cnn2-c2ccc(F)cc2)c1=O)[C@](O)(Cn1cncn1)c1ccc(F)cc1F | 217 to 218
81 | COc1ccc(C(=O)Nc2ccc3ccc(C)nc3n2)cc1 | 119
82 | O=S(=O)(CC(F)(F)F)c1nc2cc(F)ccc2[nH]1 | 160 to 162
83 | CC1(C(F)(F)F)C(=O)NC(=O)NC1=O | 205 to 206
84 | CN/C(=C1/Sc2ccccc2C1=O)c1ccccc1 | 154 to 155
85 | CC(C)NC(=O)N1c2ccc(S(=O)(=O)n3cc(-c4ccccc4)[nH]c3=O)cc2CC1C (stereo unspecified) | 154 to 156
86 | Cc1cccc(Cn2c(NC3CCN(CCc4c(C)nc5ccccn5c4=O)CC3)nc3cccnc32)n1 | 233
87 | O=[N+]([O-])c1cc(F)ccc1N1CCNCC1 | 85 to 87
88 | CCCCCNC(=S)NC(=Nc1ccccc1)c1ccccc1 | 157 to 158
89 | CCCC=C(NC(=O)c1ccccc1)C(=O)OCC | 68 to 70
90 | CCOc1ccccc1-c1cccc(-n2cnc(-c3nc(C)no3)c2)c1 | 110 to 113
91 | C=CCC1C2CCC(C2)C1NC(=O)OCc1ccccc1 (stereo unspecified) | 70
92 | CC(C)(C)OC(=O)N1CCNC(=O)C1Cc1ccc(F)cc1 (stereo unspecified) | 145 to 147
93 | CC[C@H](C)[C@H](OCc1ccccc1)[C@H]1[C@H]([N+](=O)[O-])[C@H](C2CC2)N[C@@H]1C(=O)O | 159 to 161
94 | O=C(CCN1C(=O)CSC1=S)Nc1ccccc1[N+](=O)[O-] | 170 to 171
95 | N#CSCC(Br)=C(Br)CSC#N | 180
96 | CCCCC12CCC3C4CCC(=O)C=C4CCC3C1CCC2(O)CC (stereo unspecified) | 78 to 80
97 | CCNC(=N)N1CCc2[nH]cnc2C1CC (stereo unspecified) | 275
98 | CC(=O)CCCN1CC[C@H](CNC(=O)c2cc(Cl)c(N)c3c2OCC3)[C@H](O)C1 (relative stereo) | 118
99 | CC(C)C(=O)Nc1ccc(C(=O)Nc2ccccc2[N+](=O)[O-])cc1 | 238
100 | COC1(c2cc(F)cc(OCc3nc(-c4ccc(F)cc4)c(-c4ccc(S(N)(=O)=O)cc4)o3)c2)CCOCC1 | 70 to 72
101 | CCCCC1COC(=S)N1 (stereo unspecified) | 71 to 72
